{
  "source": "patent US9017692B2",
  "about": "“Antimicrobial agent, bacterial strain, biosynthesis, and methods of use” (priority 2011, dated 2015)",
  "key": {"[1]": {"test_system": "Salmonella enterica ser. Typhimurium", "assay": "Spot-on-lawn antimicrobial activity", "format": "cell-based", "conditions": "TSBYE", "procedure": "(§1) Spot-on-lawn method [He, Z., et al., Appl. Environ. Microbiol., (2007) 73:168-178] was used for the bioassay of antimicrobial activity. Bacterial indicators were incubated at 37° C. for 24 h, except Pseudomonas putida, Clostridium difficile and methycillin resistant Staphylococcus aureus which were incubated for 48 h (Table 1). The indicator overlay was prepared by pouring 10 ml soft agar (seeded with 10 μL indicator culture) onto tryptose agar as basal medium in a petri dish. Purified antimicrobials were two-fold serially diluted and aliquots (10 μL each) were spotted onto the soft agar. The plates were incubated overnight and inspected for the presence of growth inhibition zones. Antimicrobial activity was expressed in arbitrary units (AU)/mL; this value is the reciprocal of the highest dilution displaying a zone of inhibition corresponding to 1 mL of the non-diluted antimicrobial preparation.\n(§2) Purified paenibacterin was used for the antimicrobial spectrum test. Microorganisms tested for sensitivity to this compound included pathogenic (e.g., Salmonella Typhimurium, Escherichia coli O157:H7, Listeria monocytogenes, and Staphylococcus aureus) and non-pathogenic (e.g., Escherichia coli K-12, Pseudomonas putida, and Enterococcus faecalis) bacteria (Table 1)."}, "Yersinia enterocolitica": {"test_system": "Yersinia enterocolitica", "assay": "Spot-on-lawn antimicrobial activity", "format": "cell-based", "conditions": "TSBYE", "procedure": "as §1, §2"}, "[2]": {"test_system": "Pseudomonas putida ATCC 45491", "assay": "Spot-on-lawn antimicrobial activity", "format": "cell-based", "conditions": "TSBYE", "procedure": "as §1, §2"}, "[3]": {"test_system": "Enterococcus faecalis ATCC 29212", "assay": "Spot-on-lawn antimicrobial activity", "format": "cell-based", "conditions": "MRS", "procedure": "as §1, §2"}, "B. cereus ATCC 11178": {"test_system": "B. cereus ATCC 11178", "assay": "Spot-on-lawn antimicrobial activity", "format": "cell-based, Bacillus cereus", "conditions": "TSBYE", "procedure": "as §1, §2"}, "[4]": {"assay": "Enzyme sensitivity test (residual antimicrobial activity, spot-on-lawn)", "format": "physicochemical", "conditions": "10 h", "procedure": "Crude extracts of Paenibacillus thiaminolyticus OSY-SE were tested for sensitivity to heat and pH change while purified antimicrobial compounds were used for enzyme sensitivity tests. For thermal stability test, crude extract solutions were exposed to 37° C., 55° C. (in incubators) or 80° C. (in a water bath) for 24 h or autoclaved at 121° C. for 5 minutes. For pH stability test, crude extract solutions were diluted with 25 mM phosphate buffer (pH 7.0) and adjusted to pH 3.0, 5.0 and 9.0, followed by incubation for 12 h. Samples were neutralized to pH 7.0 before the antimicrobial activity test. Enzyme sensitivity tests were performed in 25 mM phosphate buffer (pH 7.0) with trypsin (type I, 12705 U/mg), lipase (type I, 9 U/mg), pronase (6.31 U/mg), α-glucosidase (type I, 100U/1.93 mg), lysozyme (46400 U/mg) and in 25 mM phosphate buffer (pH 8.0) with polymyxin acylase (16 U/mg). All enzymes were purchased from Sigma (St. Louis, Mo.) except polymyxin acylase (Wako Chemicals USA, Inc., Richmond, Va.). Digesting solutions were prepared at concentration of 0.1 mg/mL for polymyxin acylase and 0.5 mg/mL for others. These mixtures of enzyme and antimicrobial compound (40 μL of final volume) were incubated at 37° C. for 10 h. Quantitative spot-on-lawn bioassay was used to measure antimicrobial activities after these treatments."}, "[5]": {"test_system": "S. enterica ser. Enteritidis", "assay": "Spot-on-lawn antimicrobial activity", "format": "cell-based, Salmonella enterica", "conditions": "TSBYE", "procedure": "as §1, §2"}, "[6]": {"test_system": "S. enterica ser. Typhimurium DT 109", "assay": "Spot-on-lawn antimicrobial activity", "format": "cell-based, Salmonella enterica", "conditions": "TSBYE", "procedure": "as §1, §2"}, "L. innocua ATCC 33090": {"test_system": "L. innocua ATCC 33090", "assay": "Spot-on-lawn antimicrobial activity", "format": "cell-based, Listeria innocua", "conditions": "TSBYE", "procedure": "as §1, §2"}, "Escherichia coli O157:H7": {"test_system": "Escherichia coli O157:H7", "assay": "Antimicrobial spectrum test", "format": "cell-based", "conditions": "gram-negative pathogens such as Escherichia coli O157:H7", "procedure": "as §1, §2"}, "C. difficile CL148": {"test_system": "C. difficile CL148", "assay": "Spot-on-lawn antimicrobial activity", "format": "cell-based, Clostridium difficile", "conditions": "BHIYE", "procedure": "as §1, §2"}, "[7]": {"test_system": "L. monocytogenes OSY-8578", "assay": "Spot-on-lawn antimicrobial activity", "format": "cell-based, Listeria monocytogenes", "conditions": "TSBYE", "procedure": "as §1, §2"}},
  "data": [
    {"substance": "paenibacterin", "values": [
      {"measurement": "Antimicrobial activity (AU/ml)", "setting": "[1]", "value": 400, "unit": "AU/ml"},
      {"measurement": "Antimicrobial activity (AU/ml)", "setting": "Yersinia enterocolitica", "value": 1600, "unit": "AU/ml"},
      {"measurement": "Antimicrobial activity (AU/ml)", "setting": "[2]", "value": 400, "unit": "AU/ml"},
      {"measurement": "Antimicrobial activity (AU/ml)", "setting": "[3]", "value": 0, "unit": "AU/ml"},
      {"measurement": "Antimicrobial activity (AU/ml)", "setting": "[3]; listed as Paenibacterin", "value": "no activity"},
      {"measurement": "Antimicrobial activity (AU/ml)", "setting": "B. cereus ATCC 11178", "value": 200, "unit": "AU/ml"},
      {"measurement": "Antimicrobial activity after enzyme treatment", "setting": "[4]; lipase 0.5 mg/mL, pH 7.0, 37° C.", "value": "resistant"},
      {"measurement": "Antimicrobial activity after enzyme treatment", "setting": "[4]; lysozyme 0.5 mg/mL, pH 7.0, 37° C.", "value": "resistant"},
      {"measurement": "Antimicrobial activity after enzyme treatment", "setting": "[4]; polymyxin acylase 0.1 mg/mL, pH 8.0, 37° C.", "value": "activity was lost"},
      {"measurement": "Antimicrobial activity after enzyme treatment", "setting": "[4]; pronase 0.5 mg/mL, pH 7.0, 37° C.", "value": "activity was lost"},
      {"measurement": "Antimicrobial activity after enzyme treatment", "setting": "[4]; trypsin 0.5 mg/mL, phosphate buffer pH 7.0, 37° C.", "value": "resistant"},
      {"measurement": "Antimicrobial activity after enzyme treatment", "setting": "[4]; α-glucosidase 0.5 mg/mL, pH 7.0, 37° C.", "value": "resistant"},
      {"measurement": "Antimicrobial activity (AU/ml)", "setting": "[5]", "value": 800, "unit": "AU/ml"},
      {"measurement": "Antimicrobial activity (AU/ml)", "setting": "[6]", "value": 400, "unit": "AU/ml"},
      {"measurement": "Antimicrobial activity (AU/ml)", "setting": "L. innocua ATCC 33090", "value": 1600, "unit": "AU/ml"},
      {"measurement": "Antimicrobial activity (in words)", "setting": "Escherichia coli O157:H7", "value": "good activity"},
      {"measurement": "Antimicrobial activity (AU/ml)", "setting": "C. difficile CL148", "value": 0, "unit": "AU/ml"},
      {"measurement": "Antimicrobial activity (AU/ml)", "setting": "C. difficile CL148; listed as Paenibacterin", "value": "no activity"},
      {"measurement": "Antimicrobial activity (AU/ml)", "setting": "[7]", "value": 1600, "unit": "AU/ml"}
    ]}
  ]
}
